# Laboratory results as given in US9975900B2, “Substituted imidazo[1,2-α]pyrazines for treating spinal muscular atrophy” (Hoffmann-La Roche Inc., priority 2014, dated 2018).
# Structures can show the parent of a compound that is named as a salt.
# Key:
# [1] = test system: SMN protein in SMA patient fibroblast cells (GM03813); assay: SMN protein assay (HTRF) in cultured cells; format: cell-based; details: Homo sapiens, SMA Type 1 patient fibroblasts, 48 hours; for EC (1.5-fold): 7-point concentration curve, concentration giving 1.5 times SMN protein vs vehicle, read-out: EC1.5x SMN protein (EC1.5x concentration for SMN protein expression); for maximal fold induction: fold increase relative to vehicle control, read-out: Max. fold increase of SMN protein
# Description: The SMN HTRF (homogeneous time resolved fluorescence) assay is used to quantify the level of SMN protein in SMA patient fibroblast cells treated with test compounds. Materials used and respective sources are listed below in Table 4.
# Cells are thawed and cultured in DMEM-10% FBS for 72 hours. Cells are trypsinized, counted and re-suspended to a concentration of 25,000 cells/mL in DMEM-10% FBS. The cell suspensions are plated at 5,000 cells per well in a 96 well microtiter plate and incubated for 3 to 5 hours. Test compounds are serially diluted 3.16-fold in 100% DMSO to generate a 7-point concentration curve. 1 μL of test compound solution is transferred to cell-containing wells and cells are incubated for 48 hours in a cell culture incubator (37° C., 5% CO2, 100% relative humidity). Triplicate samples are set up for each test compound concentration. After 48 hours, the supernatant is removed from the wells and 25 μL of the RIPA lysis buffer, containing protease inhibitors, is added to the wells and incubated with shaking at room temperature for 1 hour. 25 μL of the diluent is added and then 35 μL of the resulting lysate is transferred to a 384-well plate, where each well contains 5 μL of the antibody solution (1:100 dilution of anti-SMN d2 and anti-SMN cryptate in SMN reconstitution buffer). The plate is centrifuged for 1 minute to bring the solution to the bottom of the wells, then incubated overnight at room temperature. Fluorescence for each well of the plate at 665 nm and 620 nm is measured on an EnVision multilabel plate reader (Perkin-Elmer).
# The normalized fluorescence signal is calculated for each sample, Blank and vehicle control well by dividing the signal at 665 nm by the signal at 620 nm. Normalizing the signal accounts for possible fluorescence quenching due to the matrix effect of the lysate. The ΔF value (a measurement of SMN protein abundance as a percent value) for each sample well is calculated by subtracting the normalized average fluorescence for the Blank control wells from the normalized fluorescence for each sample well, then dividing this difference by the normalized average fluorescence for the Blank control wells and multiplying the resulting value by 100. The ΔF value for each sample well represents the SMN protein abundance from test compound-treated samples. The ΔF value for each sample well is divided by the ΔF value for the vehicle control wells to calculate the fold increase in SMN protein abundance relative to the vehicle control. Table 5 provides EC1.5× concentrations for SMN protein expression that was obtained from the 7-point concentration data generated according to the above procedure for particular compounds of the present invention.
# Table 6 provides the maximum fold increase of SMN protein that was obtained from the 7-point concentration data generated according to the above procedure for particular compounds of the present invention
# [2] = test system: full length SMN2 minigene mRNA (HEK293H cells stably transfected with the SMN2-A minigene construct); assay: RT-qPCR assay for SMN2 minigene pre-mRNA splicing in cultured cells; format: cell-based; details: Homo sapiens, HEK293-H, 24 hours, 7-point concentration curve, concentration giving 1.5-fold FL SMN2mini mRNA vs vehicle, read-out: EC1.5x minigene (EC1.5x concentration for production of full length SMN2 minigene mRNA)
# Description: The reverse transcription-quantitative PCR-based (RT-qPCR) assay is used to quantify the level of the full length SMN2 minigene (referred to herein by the term “FL SMN2mini”) mRNA containing SMN2 exon 7 in a HEK293H cell line stably transfected with said minigene and treated with a test compound. Materials used and respective sources are listed below in Table 1.
# The SMN2-A minigene construct was prepared as described in International Patent Application WO2009/151546A1 page 145 paragraph [00400] to page 147 paragraph [00412] (incl. FIG. 1 and FIG. 3 therein).
# HEK293H cells stably transfected with the SMN2-A minigene construct (10,000 cells/well) are seeded in 200 μL of cell culture medium (DMEM plus 10% FBS, with 200 μg/mL hygromycin) in 96-well flat-bottom plates and the plate is immediately swirled to ensure proper dispersal of cells and the formation of an even monolayer of cells. Cells are allowed to attach for 6 hours. Test compounds are serially diluted 3.16-fold in 100% DMSO to generate a 7-point concentration curve. A solution of test compound (1 μL, 200× in DMSO) is added to each cell-containing well and the plate is incubated for 24 hours in a cell culture incubator (37° C., 5% CO2, 100% relative humidity). 2 replicates are prepared for each test compound concentration. The cells are then lysed in the Cells-To-Ct lysis buffer and the lysate is stored at −80° C.
# Full length SMN2-A minigene and GAPDH mRNA are quantified using the primers and probes referenced in Table 2. Primer SMN Forward A (SEQ ID NO.1) hybridizes to a nucleotide sequence in exon 7 (nucleotide 22 to nucleotide 40), primer SMN Reverse A (SEQ ID NO.2) hybridizes to a nucleotide sequence in the coding sequence of Firefly luciferase, SMN Probe A (SEQ ID NO.3) hybridizes to a nucleotide sequence in exon 7 (nucleotide 50 to nucleotide 54) and exon 8 (nucleotide 1 to nucleotide 21). The combination of these three oligonucleotides detects only SMN1 or SMN2 minigenes (RT-qPCR) and will not detect endogenous SMN1 or SMN2 genes.
# The SMN forward and reverse primers are used at final concentrations of 0.4 μM. The SMN probe is used at a final concentration of 0.15 μM. The GAPDH primers are used at final concentrations of 0.2 μM and the probe at 0.15 μM.
# The SMN2-minigene GAPDH mix (15 μL total volume) is prepared by combining 7.5 of 2×RT-PCR buffer, 0.4 μL of 25×RT-PCR enzyme mix, 0.75 μL of 20× GAPDH primer-probe mix, […] of water, 2 μL of 10-fold diluted cell lysate, 0.06 μL of 100 μM SMN forward primer, 0.06 μL of 100 μM SMN reverse primer, and 0.225 μL of 100 μM SMN probe.
# PCR is carried out at the following temperatures for the indicated time: Step 1: 48° C. (15 min); Step 2: 95° C. (10 min); Step 3: 95° C. (15 sec); Step 4: 60° C. (1 min); then repeat Steps 3 and 4 for a total of 40 cycles.
# Each reaction mixture contains both SMN2-A minigene and GAPDH primers/probe sets (multiplex design), allowing simultaneous measurement of the levels of two transcripts.
# The increase in the abundance of the FL SMN2mini mRNA relative to that in cells treated with vehicle control is determined from real-time PCR data using a modified ΔΔCt method (as described in Livak and Schmittgen, Methods, 2001, 25:402-8). The amplification efficiency E is calculated from the slope of the amplification curve for FL SMN2mini and GAPDH individually. The abundance of FL SMN2mini and GAPDH mRNA are then calculated as (1+E)^−Ct, where Ct is the threshold value for each amplicon. The abundance of FL SMN2mini mRNA is normalized to GAPDH mRNA abundance. The normalized FL SMN2mini mRNA abundance from test compound-treated samples is then divided by normalized FL SMN2mini mRNA abundance from vehicle-treated cells to determine the level of FL SMN2mini mRNA relative to vehicle control. […]
SMILES,EC (1.5-fold) [1] [µM],maximal fold induction [1],EC (1.5-fold) [2] [µM]
"Cc1cn2cc(NC(=O)c3ccc(N4CCNC(C)(C)C4)cc3F)nc(C3CC3)c2n1 [Example 37, N-(8-cyclopropyl-2-methylimidazo[1,2-a]pyrazin-6-yl)-4-(3,3-dimethylpiperazin-1-yl)-2-fluorobenzamide hydrochloride]",0.287,1.72,0.0317
"Cc1cn2cc(NC(=O)c3ccc(N4CCN[C@H](C)C4)cc3F)nc(C(F)F)c2n1 [Example 44, N-[8-(difluoromethyl)-2-methylimidazo[1,2-a]pyrazin-6-yl]-2-fluoro-4-[(3R)-3-methylpiperazin-1-yl]benzamide]",0.035,1.79,0.0095
"CCOc1cc(N2CCN3CCC[C@H]3C2)ccc1C(=O)Nc1cn2cc(C)nc2cn1 [Example 3, 4-[(8aS)-3,4,6,7,8,8a-hexahydro-1H-pyrrolo[1,2-a]pyrazin-2-yl]-2-ethoxy-N-(2-methylimidazo[1,2-a]pyrazin-6-yl)benzamide]",0.409,1.83,0.102
"Cc1cn2cc(NC(=O)c3ccc(N4CCN5CCC[C@@H]5C4)cc3F)ncc2n1 [Example 7, 4-[(8aR)-3,4,6,7,8,8a-hexahydro-1H-pyrrolo[1,2-a]pyrazin-2-yl]-2-fluoro-N-(2-methylimidazo[1,2-a]pyrazin-6-yl)benzamide]",0.872,1.64,0.0484
"Cc1cn2cc(NC(=O)c3ccc(N4CCN5CCC[C@@H]5C4)cc3F)nc(C3CC3)c2n1 [Example 22, 4-[(8aR)-3,4,6,7,8,8a-hexahydro-1H-pyrrolo[1,2-a]pyrazin-2-yl]-N-(8-cyclopropyl-2-methylimidazo[1,2-a]pyrazin-6-yl)-2-fluorobenzamide]",0.66,1.5,0.0952
"Cc1cn2cc(NC(=O)c3ccc(N4CCN[C@H](C)C4)cc3F)ncc2n1 [Example 25, 2-fluoro-N-(2-methylimidazo[1,2-a]pyrazin-6-yl)-4-[(3R)-3-methylpiperazin-1-yl]benzamide hydrochloride]",0.123,1.88,0.0146
"Cc1cn2cc(NC(=O)c3ccc(N4CCN5CCC[C@H]5C4)cc3F)nc(C)c2n1 [Example 13, 4-[(8aS)-3,4,6,7,8,8a-hexahydro-1H-pyrrolo[1,2-a]pyrazin-2-yl]-N-(2,8-dimethylimidazo[1,2-a]pyrazin-6-yl)-2-fluorobenzamide]",0.109,1.66,0.0262
"CC[C@@H]1CN(c2ccc(C(=O)Nc3cn4cc(C)nc4cn3)c(F)c2)CCN1 [Example 32, 4-[(3R)-3-ethylpiperazin-1-yl]-2-fluoro-N-(2-methylimidazo[1,2-a]pyrazin-6-yl)benzamide hydrochloride]",0.126,1.81,0.0268
"COc1cc(N2CCNC3(CC3)C2)ccc1C(=O)Nc1cn2cc(C)nc2cn1 [Example 34, 4-(4,7-diazaspiro[2.5]octan-7-yl)-2-methoxy-N-(2-methylimidazo[1,2-a]pyrazin-6-yl)benzamide]",1.25,1.69,0.214
"Cc1cn2cc(NC(=O)c3ccc(N4CCNCC4)cc3F)ncc2n1 [Example 1, 2-fluoro-N-(2-methylimidazo[1,2-a]pyrazin-6-yl)-4-piperazin-1-ylbenzamide hydrochloride]",0.087,1.9,0.0374
"Cc1cn2cc(NC(=O)c3ccc(N4CCNC5(CC5)C4)cc3F)ncc2n1 [Example 26, 4-(4,7-diazaspiro[2.5]octan-7-yl)-2-fluoro-N-(2-methylimidazo[1,2-a]pyrazin-6-yl)benzamide hydrochloride]",1.61,1.57,0.0596
"COc1cc(N2CCN[C@H](C)C2)ccc1C(=O)Nc1cn2cc(C)nc2cn1 [Example 38, 2-methoxy-N-(2-methylimidazo[1,2-a]pyrazin-6-yl)-4-[(3R)-3-methylpiperazin-1-yl]benzamide]",0.206,1.74,0.0578
"CCOc1cc(N2CCN[C@H](C)C2)ccc1C(=O)Nc1cn2cc(C)nc2c(C)n1 [Example 15, N-(2,8-dimethylimidazo[1,2-a]pyrazin-6-yl)-2-ethoxy-4-[(3R)-3-methylpiperazin-1-yl]benzamide]",0.303,1.72,0.038
"COc1cc(N2CC[C@@H](N3CCCC3)C2)ccc1C(=O)Nc1cn2cc(C)nc2cn1 [Example 39, 2-methoxy-N-(2-methylimidazo[1,2-a]pyrazin-6-yl)-4-[(3R)-3-pyrrolidin-1-ylpyrrolidin-1-yl]benzamide]",0.379,1.75,0.118
"Cc1cn2cc(NC(=O)c3ccc(N4C[C@@H](C)N[C@@H](C)C4)cc3F)nc(C)c2n1 [Example 19, N-(2,8-dimethylimidazo[1,2-a]pyrazin-6-yl)-4-[(3R,5S)-3,5-dimethylpiperazin-1-yl]-2-fluorobenzamide]",0.0274,1.71,0.003
